Measurements from patent US10167518B2, “Methods of stratifying patients for treatment with retinoic acid receptor-alpha agonists” (Syros Pharmaceuticals, Inc., priority 2015, dated 2019).

Tests used:
RAR alpha = biological target: T1, RAR alpha (Homo sapiens, UniProt P10276); assay: SelectScreen Nuclear Profiling, agonist specificity for RAR alpha; assay type: cell-based; conditions: for EC50 / RAR alpha % max: agonist specificity, SelectScreen; for RAR-a/RAR-g Selectivity % max: ratio of RAR alpha to RAR gamma % max; for RAR-a/RAR-g Selectivity EC50: ratio of RAR gamma to RAR alpha EC50
T1 sequence (P10276 1-462): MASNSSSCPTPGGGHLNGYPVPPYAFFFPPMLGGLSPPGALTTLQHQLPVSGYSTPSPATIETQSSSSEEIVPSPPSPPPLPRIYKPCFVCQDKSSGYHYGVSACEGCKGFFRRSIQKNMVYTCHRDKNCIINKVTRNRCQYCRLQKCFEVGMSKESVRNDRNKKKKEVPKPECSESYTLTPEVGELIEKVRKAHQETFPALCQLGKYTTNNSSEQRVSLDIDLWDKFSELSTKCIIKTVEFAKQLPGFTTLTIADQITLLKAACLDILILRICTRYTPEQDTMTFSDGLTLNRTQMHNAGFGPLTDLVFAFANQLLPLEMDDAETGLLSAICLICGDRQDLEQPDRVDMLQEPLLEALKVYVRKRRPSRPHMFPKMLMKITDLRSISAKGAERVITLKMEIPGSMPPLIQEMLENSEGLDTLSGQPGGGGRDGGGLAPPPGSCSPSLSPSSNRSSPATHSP
Experimental: (§1) The agonist specificity of the various test compounds for each type of RaR is assessed at Life Technologies using their SelectScreen® Nuclear Profiling Services.

RAR beta = biological target: T2, RAR beta (Homo sapiens, UniProt P10826); assay: SelectScreen Nuclear Profiling, agonist specificity for RAR beta; assay type: cell-based
T2 sequence (P10826 1-455): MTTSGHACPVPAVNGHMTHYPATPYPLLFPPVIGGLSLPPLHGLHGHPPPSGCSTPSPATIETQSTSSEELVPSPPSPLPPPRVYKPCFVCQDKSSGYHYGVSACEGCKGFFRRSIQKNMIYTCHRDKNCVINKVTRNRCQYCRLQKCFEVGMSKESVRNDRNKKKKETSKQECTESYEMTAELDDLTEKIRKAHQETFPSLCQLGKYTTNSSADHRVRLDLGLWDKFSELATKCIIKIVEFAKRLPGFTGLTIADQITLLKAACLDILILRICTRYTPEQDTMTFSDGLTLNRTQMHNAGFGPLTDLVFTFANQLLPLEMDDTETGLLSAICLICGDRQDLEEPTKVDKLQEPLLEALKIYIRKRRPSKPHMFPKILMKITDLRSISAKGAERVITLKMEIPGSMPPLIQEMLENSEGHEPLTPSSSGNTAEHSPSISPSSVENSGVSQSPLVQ
Experimental: as §1

RAR gamma = biological target: T3, RAR gamma (Homo sapiens, UniProt P13631); assay: SelectScreen Nuclear Profiling, agonist specificity for RAR gamma; assay type: cell-based
T3 sequence (P13631 1-454): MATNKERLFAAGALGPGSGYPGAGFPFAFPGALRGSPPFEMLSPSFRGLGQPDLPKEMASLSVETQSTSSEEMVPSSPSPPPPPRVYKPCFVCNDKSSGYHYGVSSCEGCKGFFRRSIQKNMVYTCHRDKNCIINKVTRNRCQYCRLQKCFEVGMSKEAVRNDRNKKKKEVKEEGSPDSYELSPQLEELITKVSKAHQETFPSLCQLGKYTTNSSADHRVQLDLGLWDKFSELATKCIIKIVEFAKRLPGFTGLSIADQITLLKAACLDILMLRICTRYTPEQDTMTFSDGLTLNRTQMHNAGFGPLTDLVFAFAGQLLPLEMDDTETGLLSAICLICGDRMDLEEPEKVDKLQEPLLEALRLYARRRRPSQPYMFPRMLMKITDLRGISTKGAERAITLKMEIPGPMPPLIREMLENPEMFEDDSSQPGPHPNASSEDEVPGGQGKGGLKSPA
Experimental: as §1

[1] = test system: AM5512 AML patient sample-derived xenograft; assay: AML patient sample-derived xenograft AM5512, % human CD45+ cells and survival
Experimental: AM5512 xenograft mice are prepared as described above.

[2] = test system: breast cancer cell lines (SKBR3, Au565, ZR75, Hcc1143); assay: Cell viability screening of breast cancer cell lines (ATPlite/CyQuant); assay type: cell-based; conditions: four breast cancer cell lines, 5 days of treatment, FIG. 7
Experimental: All cell lines are obtained from ATCC and cultured at 37° C. in 5% CO2. All are grown in RPMI1640 supplemented with 10 mM HEPES buffer, 2 mM L-glutamine, 50 U/mL penicillin, 50 […] and 10% fetal bovine serum (FBS, all from Invitrogen). Cells lines included AU565, SKBR3, T47D, HCC1143, MCF7, ZR-75-1, and HCC1569.
On the day of the experiment, cells are homogenized using Accumax (EMD Millipore), counted, and adjusted to 40,000 cells/ml for breast cancer lines and 60,000 cells/mL for AML in appropriate growth media. Using a Biotek EL406, 50 μl of cells are distributed into white (ATPlite) or black (CyQuant) 384-well plates (Thermo). Cells are returned to 37° C. incubator to allow adhesion. After three hours, compounds are added to plates using a 20 nl 384-well pin transfer manifold on a Janus workstation. […]
Cell viability is read out using ATPlite (Perkin Elmer) or CyQuant (Life Technologies). […] Plates are incubated for 15 min at room temperature before the luminescence signal was read on an Envision Plate Reader (Perkin Elmer). […] Reagent are added using a multichannel pipet and plates are replaced in incubator for 30 minutes prior to readout on an Envision Plate Reader (Perkin Elmer).
Data acquired as described is stored and grouped in Microsoft's Excel and analyzed using GraphPad Prism Software. […]

[3] = test system: AML cell lines (SigM5, OCI M1, MV411, HEL, Kasumi); assay: Cell viability screening of AML cell lines (ATPlite/CyQuant); assay type: cell-based
Experimental: On the day of the experiment, cells are homogenized using Accumax (EMD Millipore), counted, and adjusted to 40,000 cells/ml for breast cancer lines and 60,000 cells/mL for AML in appropriate growth media. Using a Biotek EL406, 50 μl of cells are distributed into white (ATPlite) or black (CyQuant) 384-well plates (Thermo). Cells are returned to 37° C. incubator to allow adhesion. After three hours, compounds are added to plates using a 20 nl 384-well pin transfer manifold on a Janus workstation. Stocks are arrayed in 10 point quadruplicate dose response in DMSO stock in 384-well compound plates. After addition of compound, plates are incubated for five or ten days in a 37° C. incubator.
Cell viability is read out using ATPlite (Perkin Elmer) or CyQuant (Life Technologies). For ATPlite, plates are removed from the incubator and brought to room temperature prior to use. Lyophilized powder of ATPlite reagent is resuspended in lysis buffer and diluted 1:2 with distilled water. 25 μL of this solution is added to each well using the Biotek liquid handler. Plates are incubated for 15 min at room temperature before the luminescence signal was read on an Envision Plate Reader (Perkin Elmer). For CyQuant, reagents are mixed as per manufacturer's instructions in PBS (Gibco). Reagent are added using a multichannel pipet and plates are replaced in incubator for 30 minutes prior to readout on an Envision Plate Reader (Perkin Elmer).
Data acquired as described is stored and grouped in Microsoft's Excel and analyzed using GraphPad Prism Software. […] Edge wells were excluded.

[4] = test system: HCC1954 tumor cells xenograft; assay: HCC1954 breast cancer cell line-derived xenograft, tumor volume; assay type: in vivo, mice
Experimental: Breast cancer cell line (HCC1954)-derived xenograft models in BALB/c nude immunocompromised mice are prepared by Crown Biosciences (Beijing, China) essentially as follows.
Six to eight week old BALB/c nude immunocompromised mice, weighing between 18-20 g are inoculated subcutaneously at the right flank region with HCC1954 tumor cells (5×10^6) in 0.1 ml of PBS (1:1 matrigel) for tumor development. […] The final dosage in mice is 6 mg per kg per day in the high dose arm (n=10) and 3 mg per kg per day in the low dose arm (n=10) in a 10 ml/kg volume. […] Tumor volume is measured twice weekly by caliper measurement.

[5] = test system: AM8096 AML patient sample-derived xenograft; assay: AML patient sample-derived xenograft AM8096, % human CD45+ cells; assay type: in vivo, mice; conditions: 6 mg per kg daily oral, after 35 days
Experimental: (§2) Different AML patient sample (AM8096, AM5512, AM7577 and AM7440)-derived xenograft models in BALB/c nude immunocompromised mice are prepared by Crown Biosciences (Beijing, China) essentially as follows.
(§3) Approximately 2×10^6 cells from each patient sample are suspended in 100 μL PBS and injected into separate mice (n=3 for each different patient sample and for the control) by IV tail injection. For AM5512, AM7577 and AM7440 xenografts, tumor burden is considered high enough to start treatment when the concentration of human CD45^+ cells reaches ˜1-5% in the animal's peripheral blood. Human CD45^+ cells are detected in mouse blood (obtained via eye bleeds) using a fluorescence activated cell sorter and FITC anti-human CD45 (Biolegend, Cat#304037). For AM8096 xenografts, treatment is begun 40 days after injection of cells.
(§4) Human CD45^+ cell levels in peripheral blood from the treated animals and control animals are measured once a week.

[6] = test system: AM7577 AML patient sample-derived xenograft; assay: AML patient sample-derived xenograft AM7577, % human CD45+ cells; assay type: in vivo, mice; conditions: 6 mg per kg daily oral
Experimental: as §2, §3, §4

[7] = test system: AM7440 AML patient sample-derived xenograft; assay: AML patient sample-derived xenograft AM7440, % human CD45+ cells; assay type: in vivo, mice; conditions: 6 mg per kg daily oral
Experimental: as §2, §3, §4

| SMILES | EC50 (RAR alpha) | RAR alpha % max (RAR alpha) | EC50 (RAR beta) | RAR beta % max (RAR beta) | EC50 (RAR gamma) | RAR gamma % max (RAR gamma) | also measured |
| --- | --- | --- | --- | --- | --- | --- | --- |
| CC1(C)C(=O)C(C)(C)c2cc(C(=O)Nc3ccc(C(=O)O)cc3)ccc21 [BMS753] | 1.43 nM | 122.2% | 701 nM | 6% | 136 nM | 19.83% | specificity for RARA over RaR-γ (RAR alpha; comparison among tested compounds): greatest specificity for RARA over RaR-γ; RAR-a/RAR-g Selectivity % max (RAR alpha): 6.1624; RAR-a/RAR-g Selectivity EC50 (RAR alpha): 94.8396 |
| CC1(C)CC=C(c2cnc3ccccc3c2)c2cc(C(=O)Nc3ccc(C(=O)O)cc3)ccc21 [BMS195614] | 1340 nM | −31.01% | – | 0% | 434 nM | −14.57% | – |
| CC1(C)CCC(C)(C)c2cc(C(=O)Nc3ccc(C(=O)O)cc3)ccc21 [AM580] | – | – | – | 78.24% | – | 87.06% | – |
| CC1(C)CCSc2ccc(C#Cc3ccc(C(=O)O)cn3)cc21 [Tazarotenic, Tazarotenic acid] | 0.353 nM | 121.4% | 5.17 nM | 71.88% | 1.1 nM | 78.33% | RAR-a/RAR-g Selectivity % max (RAR alpha): 1.5499; RAR-a/RAR-g Selectivity EC50 (RAR alpha): 3.1172 |
| COc1ccc(-c2ccc3cc(C(=O)O)ccc3c2)cc1C12CC3CC(CC(C3)C1)C2 [Adapalene] | 5.01 nM | 102.2% | 9.73 nM | 69.36% | – | 87.7% | – |
| CC1=C(/C=C/C(C)=C/C=C/C(C)=C/C(=O)O)C(C)(C)CCC1 [Tretinoin, all-trans retinoic acid] | – | 149.4% | – | 92.77% | – | 99.37% | % CD45+ cells vs vehicle control ([1]; 4 mg/kg BID, after 14 days): reduction in % CD45^+ cells; survival ([1]; 4 mg/kg BID, n=7): none of those mice survived past day 21 |
| CC1(C)CCC(C)(C)c2cc(NC(=O)c3ccc(C(=O)O)cc3)ccc21 [tamibarotene] | – | – | – | 114.9% | – | 106.1% | sensitivity order of breast cancer cell lines (viability) [2]: SKBR3>Au565>ZR75>Hcc1143; responsiveness of cell line ([3]; HEL cells): non-responsive; responsiveness of cell line ([3]; MV411 cells): tamibarotene-responsive; sensitivity order of AML cell lines (viability) ([3]; SigM5, MV411, HEL, Kasumi, FIGS. 23A-B): SigM5>MV411>HEL=Kasumi; sensitivity order of AML cell lines (viability) ([3]; three AML cell lines, 5 days of treatment, FIG. 9): SigM5>OCI M1>HEL; tumor volume ([4]; 3 and 6 mg per kg per day, QD PO, up to 21 days): reduces tumor volume in this model in a dose-dependent manner; reduction in tumor volume, p (t-test, Welch's correction) ([4]; high dose arm, 6 mg per kg per day QD PO): 0.0048; reduction in tumor volume, p (t-test, Welch's correction) ([4]; low dose arm, 3 mg per kg per day QD PO): 0.0552; total % of CD45+ cells and % in blood, bone marrow and spleen vs vehicle [5]: significant reduction; % human CD45+ cells (overall, blood, bone marrow, spleen) vs vehicle [6]: no significant reduction; tumor volume (overall, blood, bone marrow, spleen) vs vehicle [7]: no significant reduction; % CD45+ cells vs vehicle control and ATRA-treated animals ([1]; 3 mg/kg BID, after 28 days): significant reduction; animals surviving the course of the experiment ([1]; 3 mg/kg BID, n=7): 5 of the 7; total % of CD45+ cells and % in blood, bone marrow and spleen vs vehicle ([1]; 6 mg per kg daily oral, after 35 days): significant reduction |
| CC1(C)CC=C(C#Cc2ccccc2)c2cc(/C=C/c3ccc(C(=O)O)cc3)ccc21 [BMS493] | 27.4 nM | −3.417% | – | 0% | 512 nM | −13.41% | – |
